Data on three compounds can be found in US7598261B2, “Spirocyclic heterocyclic derivatives and methods of their use” (Adolor Corporation, priority 2005, dated 2009).

Assay [1] addresses T1, cloned human δ opioid receptor (Homo sapiens, UniProt P41143).
T1 construct: expressed in transfected cells; host or cells: CHO cells (membrane preparations)
In words: [3H]diprenorphine receptor binding, δ opioid receptor. The note with it: inhibition of [3H]diprenorphine binding, read-out: affinity (Ki value), delta opioid receptor. How it is done: (§1) The potencies of the compounds listed in Table 2 were determined by testing the ability of a range of concentrations of each compound to inhibit the binding of the non-selective opioid antagonist, [^3H]diprenorphine, to the cloned human μ, κ, and δ opioid receptors, expressed in separate cell lines. IC50 values were obtained by nonlinear analysis of the data using GraphPad Prism version 3.00 for Windows (GraphPad Software, San Diego). Ki values were obtained by Cheng-Prusoff corrections of IC50 values.
(§2) The receptor binding method (DeHaven and DeHaven-Hudkins, 1998) was a modification of the method of Raynor et al. (1994). After dilution in buffer A and homogenization as before, membrane proteins (10-80 μg) in 250 μL were added to mixtures containing test compound and [^3H]diprenorphine (0.5 to 1.0 nM, 40,000 to 50,000 dpm) in 250 μL of buffer A in 96-well deep-well polystyrene titer plates (Beckman). […] The filters were rinsed 4 times with 1 mL of cold 50 mM Tris HCl, pH 7.8 and radioactivity remaining on the filters determined by scintillation spectroscopy. Nonspecific binding was determined by the minimum values of the titration curves and was confirmed by separate assay wells containing 10 μM naloxone. Ki values were determined by Cheng-Prusoff corrections of IC50 values derived from nonlinear regression fits of 12 point titration curves using GraphPad Prism® version 3.00 for Windows (GraphPad Software, San Diego, Calif.).
To determine the equilibrium dissociation constant for the inhibitors (Ki), radioligand bound (cpm) in the presence of various concentrations of test compounds was measured. The concentration to give half-maximal inhibition (EC50) of radioligand binding was determined from a best nonlinear regression fit to the following equation, […]
The potencies of the compounds were determined by testing the ability of a range of concentrations of each compound to inhibit the binding of the non-selective opioid antagonist, [^3H]diprenorphine, to the cloned human μ, κ, and δ opioid receptors, expressed in separate cell lines. […]

Assay [2] concerns the target T1, cloned human δ opioid receptor. Description: Receptor-mediated [35S]GTPγS binding (agonist potency). The class given is biochemical. The note with it: stimulation of [35S]GTPγS binding, membranes with cloned human δ opioid receptor; read-out: in vitro δ agonist activity (EC50). The method, then:
The potency and efficacy of compounds at each of the receptors are assessed by modifications of the methods of Selley et al., 1997 and Traynor and Nahorski, 1995 using receptor-mediated [^35S]GTPγS binding in the same membrane preparations used to measure receptor binding. Assays are carried out in 96-well FlashPlates® (Perkin Elmer Life Sciences, Inc, Boston, Mass.). Membranes prepared from CHO cells expressing the appropriate receptor (50-100 μg of protein) are added to assay mixtures containing agonist with or without antagonists, 100 pM [^35S]GTPγS (approx. 100,000 dpm), 3.0 μM GDP, 75 mM NaCl, 15 mM MgCl2, 1.0 mM ethylene glycol-bis(β-aminoethyl ether)-N,N,N′,N′-tetracetic acid, 1.1 mM dithiothreitol, 10 μg/mL leupeptin, 10 μg/mL pepstatin A, 200 μg/mL bacitracin, and 0.5 μg/mL aprotinin in 50 mM Tris-HCl buffer, pH 7.8. After incubation at room temperature for one hour, the plates are sealed, centrifuged at 800×g in a swinging bucket rotor for 5 min and bound radioactivity determined with a TopCount microplate scintillation counter (Packard Instrument Co., Meriden, Conn.).
EC50 values for agonists are determined from nonlinear regression fits of 8- or 12-point titration curves to the 4-parameter equation for a sigmoidal dose-response with a slope factor of 1.0 using GraphPad Prism® version 3.00 for Windows (GraphPad Software, San Diego, Calif.).
The potencies of the compounds were determined by testing the ability of a range of concentrations of each compound to inhibit the binding of the non-selective opioid antagonist, [^3H]diprenorphine, to the cloned human μ, κ, and δ opioid receptors, expressed in separate cell lines. […] These compounds display high selectivity δ/κ and δ/μ (at least 10-fold). The potencies of the agonists were assessed by their abilities to stimulate [^35S]GTPγS binding to membranes containing the cloned human δ opioid receptors.
Background: GTPγS resists hydrolysis and so accumulates on activated G proteins.

Assay [3] addresses T2, cloned human μ opioid receptor (Homo sapiens, UniProt P35372).
T2 construct: expressed in transfected cells; host or cells: CHO cells (membrane preparations)
In words: [3H]diprenorphine receptor binding, μ opioid receptor. Conditions: inhibition of [3H]diprenorphine binding, read-out: affinity (Ki value), mu opioid receptor. The method, then:
as §1
as §2, with “(1994).” for “(1994). After dilution in buffer A and homogenization as before, membrane proteins (10-80 μg) in 250 μL were added to mixtures containing test compound and [^3H]diprenorphine (0.5 to 1.0 nM, 40,000 to 50,000 dpm) in 250 μL of buffer A in 96-well deep-well polystyrene titer plates (Beckman).”
(§3) To determine the equilibrium dissociation constant for the inhibitors (Ki), radioligand bound (cpm) in the presence of various concentrations of test compounds was measured. […]

For assay [4], the target named is T3, cloned human κ opioid receptor (Homo sapiens, UniProt P41145).
T3 construct: expressed in transfected cells; host or cells: CHO cells (membrane preparations)
Description: [3H]diprenorphine receptor binding, κ opioid receptor. The note with it: inhibition of [3H]diprenorphine binding, read-out: affinity (Ki value), kappa opioid receptor. The method, then: as §1
as §2, with “(1994).” for “(1994). After dilution in buffer A and homogenization as before, membrane proteins (10-80 μg) in 250 μL were added to mixtures containing test compound and [^3H]diprenorphine (0.5 to 1.0 nM, 40,000 to 50,000 dpm) in 250 μL of buffer A in 96-well deep-well polystyrene titer plates (Beckman).”
as §3

A value given as a limit tells only on which side of the number the result lay.

T1 sequence (P41143 whole entry): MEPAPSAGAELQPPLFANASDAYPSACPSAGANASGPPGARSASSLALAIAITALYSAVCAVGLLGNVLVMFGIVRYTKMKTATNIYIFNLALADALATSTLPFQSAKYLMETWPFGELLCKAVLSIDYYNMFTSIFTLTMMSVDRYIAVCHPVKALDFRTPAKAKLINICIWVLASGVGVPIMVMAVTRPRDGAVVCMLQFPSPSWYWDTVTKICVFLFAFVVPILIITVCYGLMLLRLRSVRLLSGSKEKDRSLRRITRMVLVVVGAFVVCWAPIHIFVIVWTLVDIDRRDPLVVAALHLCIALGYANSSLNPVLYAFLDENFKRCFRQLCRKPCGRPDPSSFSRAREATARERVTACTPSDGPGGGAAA
T3 sequence (P41145 whole entry): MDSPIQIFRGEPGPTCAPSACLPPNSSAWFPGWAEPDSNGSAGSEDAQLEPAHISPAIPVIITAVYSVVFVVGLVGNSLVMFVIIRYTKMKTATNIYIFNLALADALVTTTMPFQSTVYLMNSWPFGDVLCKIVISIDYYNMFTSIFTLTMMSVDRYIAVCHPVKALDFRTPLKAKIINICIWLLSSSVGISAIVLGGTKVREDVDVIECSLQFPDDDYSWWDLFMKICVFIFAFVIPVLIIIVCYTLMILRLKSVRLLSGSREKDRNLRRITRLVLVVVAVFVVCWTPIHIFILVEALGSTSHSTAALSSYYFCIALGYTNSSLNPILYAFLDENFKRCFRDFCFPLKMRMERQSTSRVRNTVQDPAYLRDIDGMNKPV
T2 sequence (P35372 whole entry): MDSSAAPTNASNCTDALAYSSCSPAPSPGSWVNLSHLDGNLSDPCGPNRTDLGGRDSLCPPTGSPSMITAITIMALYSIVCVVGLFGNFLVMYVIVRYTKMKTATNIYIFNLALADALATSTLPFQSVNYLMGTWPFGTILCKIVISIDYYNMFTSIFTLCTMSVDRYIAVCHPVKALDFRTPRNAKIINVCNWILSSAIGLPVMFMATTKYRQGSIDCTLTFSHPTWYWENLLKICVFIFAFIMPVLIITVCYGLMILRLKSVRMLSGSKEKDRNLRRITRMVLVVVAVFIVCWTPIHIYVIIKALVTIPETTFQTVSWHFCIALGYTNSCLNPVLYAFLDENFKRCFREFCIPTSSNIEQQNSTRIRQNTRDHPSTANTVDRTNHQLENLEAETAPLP

For orientation: EC50 means the concentration that produces a half-maximal response. In the case of `CCN(CC)C(=O)c1ccc(C2CC3(CCNCC3)Oc3ccc(F)cc32)c(O)c1` (single isomer, unassigned) [61A], the Ki in assay [1] was determined as 0.59 nM. For the same compound, the half-maximal effective concentration (EC50) in assay [2] came to 16.8 nM.
The matching figures for `CCN(CC)C(=O)c1ccc(C2CC3(CCNCC3)Oc3ccc(F)cc32)c(O)c1` (single isomer, unassigned) [61B]: 75 nM and 1280 nM.
In the case of `CC(=O)c1ccc(C2=CC3(CCNCC3)Oc3ccccc32)cc1` [33M], the Ki in assay [3] was greater than 1000 nM; in assay [1], 9.7 nM; in assay [4], greater than 1000 nM. Further, in assay [2], the EC50 worked out at 287 nM.
